What was measured:
MBP = target: T1, MBP (Escherichia coli, UniProt P0AEX9); assay: SPR (BIACORE) detection of maltose binding to immobilized MBP
T1 construct: made in house
Method: MBP was prepared from osmotic shock lysates and coupled to a CM5 (carboxymethyl dextran) chip (BIACORE) using standard EDC/NHS procedures performed with reagents from the BIACORE EDC/NHS coupling kit. MBP was 10 μM at pH 4.5 in 10 mM NaOAc. Hepes Buffered Saline-EP (HBS-EP: 0.01 M HEPES pH 7.4, 0.15 M NaCl, 3 mM EDTA, 0.005% surfactant P20; BIACORE™ AB) was used as an eluent (O'Shannessy et al., 1992) supplemented with 5 mM CaCl2. Ethanolamine (1.0 M, pH 8.0) was used to quench unreacted esters and was also found to be effective at removing non-covalently adsorbed protein from the chip surface. […] Report points were collected at 100 seconds post injection. Report points from injections over a blank surface were subtracted. Data points were discarded for data collected during obvious anomalies, such as air bubbles. Running buffer was HBS-EPA (BIACORE) supplemented with 5 mM CaCl2.
After regeneration the surface was allowed to stabilize for 300 seconds before additional ligand injections.

[1] = target: T2, Tissue transglutaminase (tTG) (Cavia cutleri, UniProt P08587); assay: SPR (BIACORE) detection of calcium binding to immobilized tissue transglutaminase
T2 construct: purchased Sigma
T2 sequence (P08587 1-690): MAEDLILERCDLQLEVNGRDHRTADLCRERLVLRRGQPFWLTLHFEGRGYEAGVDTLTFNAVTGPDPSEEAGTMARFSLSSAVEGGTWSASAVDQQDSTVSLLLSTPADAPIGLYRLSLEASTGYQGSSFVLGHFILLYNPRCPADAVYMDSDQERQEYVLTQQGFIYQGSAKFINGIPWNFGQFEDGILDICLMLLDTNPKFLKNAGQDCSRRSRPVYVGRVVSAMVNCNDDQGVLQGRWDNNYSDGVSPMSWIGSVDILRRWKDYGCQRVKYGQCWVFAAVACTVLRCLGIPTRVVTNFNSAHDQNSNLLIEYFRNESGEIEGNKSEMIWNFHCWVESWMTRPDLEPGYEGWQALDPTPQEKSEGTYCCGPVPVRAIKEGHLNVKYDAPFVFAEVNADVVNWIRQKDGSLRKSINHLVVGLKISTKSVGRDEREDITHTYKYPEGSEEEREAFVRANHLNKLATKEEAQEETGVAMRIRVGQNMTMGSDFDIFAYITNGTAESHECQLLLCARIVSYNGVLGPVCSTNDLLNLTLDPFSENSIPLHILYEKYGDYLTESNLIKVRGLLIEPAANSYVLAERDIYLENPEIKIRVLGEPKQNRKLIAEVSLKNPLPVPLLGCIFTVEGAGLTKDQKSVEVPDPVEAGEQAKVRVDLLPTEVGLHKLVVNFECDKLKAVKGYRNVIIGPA
Method: Tissue transglutaminase (tTG) was obtained from Sigma and prepared at 1.3 mg/mL at pH 4.5 in 10 mM NaOAc. A surface bearing 2500 RU of tTG was prepared using standard EDC/NHS coupling chemistry and was used for all experiments. Ethanolamine (1.0 M, pH 8.0) was used to quench unreacted esters. Calcium chloride was prepared in dH2O at the desired concentrations. Injections were 20 μL at a flow rate of 10 μL/min (2 minute contact time). Report points were collected at 100 seconds post injection. Report points from injections over a blank surface were subtracted. Typical injections over the blank control surface gave minimal (<5 RU) signals, but were subtracted nonetheless. Injections were randomized relative to concentration. Data points were discarded for data collected during obvious anomalies, such as air bubbles. Running buffer was HBS-EP (BIACORE) without calcium supplementation. Calcium was removed from transglutaminase by injection of 5 mM EDTA pH 8.0. After EDTA injection the surface was allowed to stabilize for 300 seconds before additional calcium injections.

tTG = target: T3, tTG (Homo sapiens, UniProt P21980); conditions: reported value; read-out: reported Kd of calcium for the protein; cited from earlier work
T3 sequence (P21980 1-687): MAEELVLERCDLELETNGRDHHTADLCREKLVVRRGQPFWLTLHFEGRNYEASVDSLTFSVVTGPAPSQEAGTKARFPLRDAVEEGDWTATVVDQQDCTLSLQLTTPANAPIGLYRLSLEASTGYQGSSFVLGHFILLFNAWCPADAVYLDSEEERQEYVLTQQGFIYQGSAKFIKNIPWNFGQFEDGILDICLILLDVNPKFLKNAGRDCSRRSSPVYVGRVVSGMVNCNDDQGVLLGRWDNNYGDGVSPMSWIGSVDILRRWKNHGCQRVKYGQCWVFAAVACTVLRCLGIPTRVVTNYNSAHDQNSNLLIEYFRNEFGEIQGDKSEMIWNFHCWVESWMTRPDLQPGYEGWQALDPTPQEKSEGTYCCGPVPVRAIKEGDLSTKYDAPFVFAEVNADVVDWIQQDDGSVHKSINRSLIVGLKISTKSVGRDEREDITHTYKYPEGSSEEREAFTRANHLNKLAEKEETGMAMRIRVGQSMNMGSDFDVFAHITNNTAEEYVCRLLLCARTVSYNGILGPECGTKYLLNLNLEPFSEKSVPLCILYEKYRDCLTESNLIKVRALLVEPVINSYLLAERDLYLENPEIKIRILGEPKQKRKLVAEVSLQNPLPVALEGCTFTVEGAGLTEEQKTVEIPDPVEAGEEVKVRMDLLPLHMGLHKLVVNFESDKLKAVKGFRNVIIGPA

[2] = target: T4, Bovine brain calmodulin (CaM) (Bos taurus, UniProt P62157); assay: SPR (BIACORE) detection of calcium binding to immobilized calmodulin
T4 construct: Bovine brain calmodulin (CaM) was obtained from Calbiochem; purchased Calbiochem; host or cells: bovine brain
Method: Bovine brain calmodulin (CaM) was obtained from Calbiochem and immobilized onto carboxymethyl dextran gold surfaces using standard BIACORE EDC/NHS coupling chemistry. HBS-EP was used as an eluent. CaM was injected at 0.5 mg/mL in 10 mM sodium acetate, pH 4.0 (54 minute injection). This procedure immobilized approximately 480 RU of calmodulin. During the immobilizations, the flow rate was 5 μL/min. For some experiments, the BIACORE™ 3000 was used. For others, a BIACORE™ Upgrade was used. In general, injections were run at a flow rate of 5 or 10 μL/min, in HBP-EP buffer. Varying concentrations of CaCl2 in HBS-EP (3.5-50 mM) were injected on the CaM and blank surfaces.

[3] = target: T5, Glucose/Galactose Binding Protein (GGBP) (Escherichia coli, UniProt P0AEE5); assay: SPR (BIACORE) response of saccharides injected over immobilized GGBP surface; conditions: surface bearing 2000 RU of GGBP; blank subtracted
T5 construct: made in house
Method: Glucose/Galactose Binding Protein (GGBP) was prepared from osmotic shock lysates and coupled to the CM5 chip surface at 20 μM at pH 4.5 in 10 mM NaOAc using standard NHS/EDC procedures. Ethanolamine (1.0 M, pH 8.0) was used to quench unreacted esters and was also found to be effective at removing non-covalently adsorbed protein from the chip surface. Buffer flow was maintained overnight to remove additional non-covalently bound GGBP from the surface before ligand injections were performed. A surface bearing 2000 RU of GGBP was used for experiments. Ligands were prepared in dH2O at the desired concentrations. Injections were 20 μL at a flow rate of 10 μL/min (2 minute contact time). Report points were collected at 100 seconds post injection. Report points from injections over a blank surface were subtracted. Typical injections over the blank control surface gave minimal (<5 RU) signals, but were subtracted nonetheless. Ligand injections were repeated 3-5 times and the order of injection was reversed periodically. Data points were discarded for data collected during obvious anomolies, such as air bubbles. Remaining data was subjected to Q tests and error represents single standard deviations. A single set of sugar solutions was used for injection over the control and test surfaces. Running buffer was HBS-EP (BIACORE) supplemented with 5 mM CaCl2. Bound GGBP ligands were removed either by injection of 100 mM α-methyl mannoside in 10 mM NaOAc pH 4.5 or by 500-1000 seconds of running buffer wash.

T5 sequence (P0AEE5 24-332 limits assumed): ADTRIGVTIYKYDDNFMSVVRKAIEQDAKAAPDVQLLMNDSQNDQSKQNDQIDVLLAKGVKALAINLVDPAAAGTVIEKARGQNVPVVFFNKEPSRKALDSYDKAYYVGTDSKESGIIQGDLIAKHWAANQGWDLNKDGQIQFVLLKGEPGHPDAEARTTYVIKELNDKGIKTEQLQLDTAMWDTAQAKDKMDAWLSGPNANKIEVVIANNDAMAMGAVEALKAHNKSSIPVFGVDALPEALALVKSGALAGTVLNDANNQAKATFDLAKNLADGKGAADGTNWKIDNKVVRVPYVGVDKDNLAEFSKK

Compound: OC[C@H]1O[C@H](O[C@H]2[C@H](O)[C@@H](O)C(O)O[C@@H]2CO)[C@H](O)[C@@H](O)[C@@H]1O (mixture of isomers) [maltose]
- change in RUs on injection over the MBP surface (MBP): reproducible net decrease in RUs

Compound: [Ca+2].[Cl-].[Cl-] [calcium, Calcium chloride]
- change in SPR response on calcium binding to tTG ([1]; SPR, immobilized tTG): positive change in response
- EC50 ([1]; surface bearing 2500 RU of tTG, running buffer without calcium, read-out: half-maximal response of tTG): 500 µM
- Kd (tTG): ~1000 µM
- signal over the CaM surface during injection ([2]; 50 mM CaCl2, blank surface gave 1502 RU): 1350 RU
- change in SPR signal on CaM surface relative to blank surface ([2]; 3.5-50 mM CaCl2 in HBS-EP, approximately 480 RU of calmodulin): reduction in signal

Compound: OC[C@H]1O[C@H](O[C@H]2[C@H](O)[C@@H](O)[C@@H](O[C@H]3[C@H](O)[C@@H](O)[C@@H](O[C@H]4[C@H](O)[C@@H](O)C(O)O[C@@H]4CO)O[C@@H]3CO)O[C@@H]2CO)[C@H](O)[C@@H](O)[C@@H]1O (stereo partly drawn) [maltotetraose]
- response in relative RU on injection over the GGBP surface [3]: negligible or slightly positive increase in relative RU

Compound: cyclodextrins
- response in relative RU on injection over the GGBP surface [3]: negligible or slightly positive increase in relative RU

Compound: maltotriose
- response in relative RU on injection over the GGBP surface [3]: negligible or slightly positive increase in relative RU

Reference: patent US6576430B1, “Detection of ligands by refractive surface methods” (Becton, Dickinson and Company, priority 2000, dated 2003)
